Publication PMC7902631, “An ESCRT-dependent step in fatty acid transfer from lipid droplets to mitochondria through VPS13D−TSG101 interactions” (Nature Communications, 2021)

Experiments:
VPS13D-LTD [1] = target: T1, VPS13D-LTD (Homo sapiens, UniProt Q5THJ4); assay: native PAGE co-migration, fluorescence; format: binding; settings: labelled compound; 4 °C, 3 h; 1.5 mg/ml protein
T1 construct: lipid transfer domain, residues 1-320; pET28a-6xHis-SUMO fusion, tag cleavage not mentioned; expressed in E. coli (DE3), Ni-NTA purified
T1 sequence (Q5THJ4 1-320): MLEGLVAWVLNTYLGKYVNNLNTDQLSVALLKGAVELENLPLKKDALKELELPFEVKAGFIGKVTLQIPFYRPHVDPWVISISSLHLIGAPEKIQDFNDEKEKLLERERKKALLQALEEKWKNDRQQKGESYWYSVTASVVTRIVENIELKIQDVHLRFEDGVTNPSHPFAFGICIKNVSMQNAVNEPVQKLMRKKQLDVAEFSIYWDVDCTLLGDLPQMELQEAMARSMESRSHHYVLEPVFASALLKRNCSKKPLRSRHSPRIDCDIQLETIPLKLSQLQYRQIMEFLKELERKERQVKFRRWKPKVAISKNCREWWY

VPS13D-LTD [2] = target: T1, VPS13D-LTD; assay: competition with BODIPY-C16, native PAGE; format: binding; settings: unlabeled, non-BSA-conjugated palmitic acid; competitor of BODIPY-C16
VAB-ΔPSAP-GFP (human) = assay: co-IP; GFP-Trap agarose beads (ChromoTek) on lysates of HEK293 cells, by the manufacturer's protocol; GFP-tagged protein held, partner detected by western blot (anti-TSG101 or anti-Halo); 5% input

## O=C(O)CCCCCCCCCCCNc1ccc([N+](=O)[O-])c2nonc12 [C12, NBD-C12]
VPS13D-LTD [1]
  native PAGE co-migration, fluorescence: purified VPS13D-LTD could bind NBD-labeled fatty acids C12 (NBD-C12)

## CCCCCCCCCCCCCCCC(=O)O [palmitic acid]
VPS13D-LTD [2]
  competition with BODIPY-C16, native PAGE: palmitic acid, but not OA, could sufficiently outcompete BODIPY-C16 for binding to VPS13D-LTD

## Halo-TSG101 (from UniProt Q99816 1-390) (natural protein)
VAB-ΔPSAP-GFP (human)
  reduction of the interaction against VAB-GFP: 60%
